Test results reported in patent US8389539B2, “Azacyclic derivatives” (Hoffman-La Roche Inc., priority 2009, dated 2013).

molecular target: T1, human HSL (Homo sapiens, UniProt Q05469); assay: Human Hormone-Sensitive Lipase (HSL) enzyme inhibition assay (colorimetric, DMPT substrate); format: biochemical; conditions: human full length HSL-His6, 2,3-dimercapto-1-propanol tributyrate substrate, 37° C. 20 minutes, absorbance at 405 nm; read-out: HSL hum IC50
T1 construct: overlapping PCR to generate a full length human HSL ORF with a 3′-His6 tag; His6 (C); made in house; host or cells: High 5 insect cells (baculovirus, pFast-BAC)
T1 sequence (Q05469 1-1076): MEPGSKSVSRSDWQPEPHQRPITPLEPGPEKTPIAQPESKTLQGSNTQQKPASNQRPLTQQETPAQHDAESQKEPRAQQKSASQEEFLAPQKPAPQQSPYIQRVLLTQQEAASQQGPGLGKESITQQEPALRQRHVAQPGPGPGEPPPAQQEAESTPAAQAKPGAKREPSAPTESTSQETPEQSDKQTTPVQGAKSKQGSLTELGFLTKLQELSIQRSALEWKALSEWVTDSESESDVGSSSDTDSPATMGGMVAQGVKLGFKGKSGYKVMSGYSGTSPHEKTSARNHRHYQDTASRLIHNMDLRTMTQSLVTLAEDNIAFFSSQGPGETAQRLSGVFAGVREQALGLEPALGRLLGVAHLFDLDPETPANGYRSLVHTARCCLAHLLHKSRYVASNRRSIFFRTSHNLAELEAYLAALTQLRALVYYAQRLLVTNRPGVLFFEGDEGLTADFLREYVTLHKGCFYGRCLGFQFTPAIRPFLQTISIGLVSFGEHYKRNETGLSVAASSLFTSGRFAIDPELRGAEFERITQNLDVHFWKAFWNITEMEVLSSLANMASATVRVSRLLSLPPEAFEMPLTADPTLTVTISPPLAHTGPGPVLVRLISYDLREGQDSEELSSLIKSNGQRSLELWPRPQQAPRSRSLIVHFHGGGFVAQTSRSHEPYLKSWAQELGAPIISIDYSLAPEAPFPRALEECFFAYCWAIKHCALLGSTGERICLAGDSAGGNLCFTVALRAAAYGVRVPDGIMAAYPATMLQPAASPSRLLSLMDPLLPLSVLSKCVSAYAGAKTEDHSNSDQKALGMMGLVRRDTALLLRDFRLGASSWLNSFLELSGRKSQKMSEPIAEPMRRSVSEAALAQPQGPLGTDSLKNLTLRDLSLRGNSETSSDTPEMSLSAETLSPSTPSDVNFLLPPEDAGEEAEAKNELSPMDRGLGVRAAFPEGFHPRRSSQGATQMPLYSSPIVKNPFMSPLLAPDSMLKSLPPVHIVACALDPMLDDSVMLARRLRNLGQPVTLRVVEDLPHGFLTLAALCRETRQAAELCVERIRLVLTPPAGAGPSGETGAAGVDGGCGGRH
Method: 1) Cloning: cDNA was prepared from commercial human brain polyA+ RNA and used as a template in overlapping PCR to generate a full length human HSL ORF with a 3′-His6 tag. This full length insert was cloned into the pFast-BAC vector and the DNA-sequence of several single clones was verified. DNA from a correct full length clone with the 3′His6 tag was used to transform the E. coli strain DH10BAC. Resulting bacmid DNA was used to generate a titered baculovirus stock for protein generation.
Cells were thawed. […] was done at 3×30 sec., Lubrol PX was added to 0.2% final concentration followed by stirring for 15 min. at 4° C. and centrifugation at 25 k×g, 60 min., 4° C. […] Supernatant was removed, the resin washed in the centrifuge vessel using 5 volumes of Base Buffer containing 0.2% Lubrol PX. Centrifugation was done again, then the supernatant discarded. The resin was poured onto a 0.8 μm membrane in a disposable filter unit (Nalge 450-0080), and washed with 5 volumes of Base Buffer containing 0.2% Lubrol PX. It was then washed with 30 volumes of Base Buffer containing 60 mM imidazole pH 7.5 at 4° C. The protein was eluated with 5 volumes of 25 mM Tris-Cl, 300 mM NaCl, 200 mM imidazole, 10 mM 2-mercaptoethanol, pH 7.5 at 4° C. by tumbling resin with buffer end-over-end, 30 min., 4° C. The resin was captured on a 0.2 μm membrane disposable filter unit (Millipore SCGP U02 RE) and the eluate collected in the reservoir. The eluate was concentrated using a 30 k MWCO centrifugal filter device (Sartorius Vivascience Vivacell 100, VC1022), to 20 ml. It was then dialyzed overnight at 4° C., two times against 2 L of 10% glycerol, 25 mM Tris-Cl, 300 mM NaCl, 0.2 mM EDTA, 0.2 mM DTT, pH 7.5 at 4° C. The protein was filtered using a 0.22 μm disposable filter unit (Millipore SCGP00525). The protein concentration was calculated from absorbance at 280 nm, using 280=0.67 cm-1 mg-1. […] The protein was stored at −80° C.
Human Hormone-Sensitive Lipase (HSL) Enzyme Inhibition Assay:
HSL enzyme activity was measured by a colorimetric assay using 2,3-dimercapto-1-propanol tributyrate (Aldrich, St. Louis, Mo.) as a substrate. Typically, 1.5 mM 2,3-dimercapto-1-propanol tributyrate (DMPT) in 100 mM MOPS, pH 7.2, 0.2 mg/ml fatty acid-free BSA was prepared by sonication at 4° C. to homogenous suspension. Test compounds (2 mM stock in DMSO) were diluted 3 fold in series in DMSO. Compound solutions were diluted 24 fold in 1.5 mM DMPT containing solution and 18 ul per well was added to 384-well microplates (Corning Costar). Twelve microliters per well of human HSL (15 ug/ml) was added and the reaction mixture was incubated at 37° C. for 20 minutes. Six microliters of 12 mM dithio-bis-(2-nitrobenzoic acid) (DTNB) in DMSO plus 1.2% SDS and 0.6% Triton X-100 were added and the mixture was incubated at room temperature for 15 minutes. Product production was monitored by reading absorbance at 405 nm on an Envision Reader (PerkinElmer Life and Analytical Sciences, Shelton, Conn.).

Structure (SMILES) | IC50
CCCCNC(=O)[C@@H](CCCC)N1CCC2(CCN(c3ccc(C4CC4)cc3)C2=O)CC1 [Example 42, (R)-2-[2-(4-Cyclopropyl-phenyl)-1-oxo-2,8-diaza-spiro[4.5]dec-8-yl]-hexanoic acid butylamide] | 0.011 µM
CCN(CC)C(=O)CN1CCC2(CC1)CCN(c1ccc(C3CC3)cc1)C2=O [Example 10, 2-[2-(4-Cyclopropyl-phenyl)-1-oxo-2,8-diaza-spiro[4.5]dec-8-yl]-N,N-diethyl-acetamide] | 0.38 µM
C[C@@H](Oc1ccc(N2CCC3(CCN(CC(O)c4ccc(Cl)cc4Cl)CC3)C2=O)cn1)C(F)(F)F (stereo partly drawn) [Example 45, 8-[2-(2,4-Dichloro-phenyl)-2-hydroxy-ethyl]-2-[6-((R)-2,2,2-trifluoro-1-methyl-ethoxy)-pyridin-3-yl]-2,8-diaza-spiro[4.5]decan-1-one] | 0.022 µM
CC(c1ccccc1)N1CCC2(CCN(c3ccc(C4CC4)cc3Cl)C2=O)CC1 (stereo not shown) [Example 6, 2-(2-Chloro-4-cyclopropyl-phenyl)-8-(1-phenyl-ethyl)-2,8-diaza-spiro[4.5]decan-1-one] | 0.98 µM
CCCCNC(=O)C(c1ccccc1)N1CCC2(CCN(c3ccc(C4CC4)cc3)C2=O)CC1 (stereo not shown) [Example 29, N-Butyl-2-[2-(4-cyclopropyl-phenyl)-1-oxo-2,8-diaza-spiro[4.5]dec-8-yl]-2-phenyl-acetamide] | 0.04 µM
O=C1N(c2ccc(OCC(F)(F)F)cc2)CCC12CCN(CC(O)c1ccc(Cl)cc1Cl)CC2 (stereo not shown) [Example 44, 8-[2-(2,4-Dichloro-phenyl)-2-hydroxy-ethyl]-2-[4-(2,2,2-trifluoro-ethoxy)-phenyl]-2,8-diaza-spiro[4.5]decan-1-one] | 0.026 µM
O=C(CN1CCC2(CC1)CCN(c1ccc(C3CC3)cc1)C2=O)Nc1ccc(F)cc1 [Example 13, 2-[2-(4-Cyclopropyl-phenyl)-1-oxo-2,8-diaza-spiro[4.5]dec-8-yl]-N-(4-fluoro-phenyl)-acetamide] | 0.08 µM
CC(O)(CN1CCC2(CC1)CCN(c1ccc(C3CC3)cc1)C2=O)c1ccccc1 (stereo not shown) [Example 34, 2-(4-Cyclopropyl-phenyl)-8-(2-hydroxy-2-phenyl-propyl)-2,8-diaza-spiro[4.5]decan-1-one] | 0.1 µM
O=C1N(c2ccc(C3CC3)cc2)CCC12CCN(CC(O)c1ccc(Cl)c(Cl)c1)CC2 (stereo not shown) [Example 37, 2-(4-Cyclopropyl-phenyl)-8-[2-(3,4-dichloro-phenyl)-2-hydroxy-ethyl]-2,8-diaza-spiro[4.5]decan-1-one] | 0.03 µM
O=C(CN1CCC2(CC1)CCN(c1ccc(C3CC3)cc1)C2=O)NCc1ccc(C(F)(F)F)cc1 [Example 12, 2-[2-(4-Cyclopropyl-phenyl)-1-oxo-2,8-diaza-spiro[4.5]dec-8-yl]-N-(4-trifluoromethyl-benzyl)-acetamide] | 0.03 µM
